Source: ChEMBL document CHEMBL3991943, “Pharmaceutical formulations comprising salts of a protein kinase inhibitor and methods of using same” (2013)

Key:
[1] = Solubility of the compound in glycerol; format: physicochemical
OVCAR-3 [2] = assay: Induction of DNA damage in human OVCAR3 cells assessed as increase in gamma-H2AX levels at 10 uM in presence of topotecan; format: functional
Mus musculus = assay: Toxicity in nude mouse xenografted with human OVCAR3 cells assessed as mortality at 100 to 200 mg/kg, po qd measured on day 5,6,7,20,27 during compound dosing in presence of cisplatin dosed every 7 days for 28 days; format: organism-based; conditions: in vivo
OVCAR-3 [3] = assay: Antitumor activity against human OVCAR3 cells xenografted in athymic nude mouse assessed as tumor growth at 100 to 200 mg/kg, po qd administered for 3 days in presence of 5 mg/kg cisplatin dosed every 7 days for 28 days (reference value: 78.04 mm3/day); format: functional
A549 [4] = assay: Suppression of carboplatin induced Rad51 expression in human A549 cells at 0.71 uM after 24 hrs by probing blot analysis; format: functional; conditions: A549, 24 h
A549 [5] = assay: Suppression of carboplatin induced Rad51 expression in human A549 cells at 3.82 uM after 24 hrs by probing blot analysis; format: functional; conditions: A549, 24 h
[6] = Cmax in female rat at 5 mg/kg, iv at 5 mins; format: ADME, organism-based; parameters: dose 5 mg/kg, route intravenous; conditions: in vivo
[7] = Tmax in male rat at 5 mg/kg, iv; format: ADME, organism-based; conditions: in vivo
[8] = Tmax in rat at 25 mg/kg administered via oral gavage; format: ADME, organism-based; conditions: in vivo
Rattus norvegicus [9] = assay: Acute toxicity in Sprague-Dawley rat assessed as clinical abnormalities at 100 to 2000 mg/kg administered as single dose via oral gavage measured 1 to 72 hrs post dose; format: organism-based; conditions: in vivo
Canis familiaris [10] = assay: Acute toxicity in dog at 30 to 2000 mg/kg, po administered as single dose capsule measured over 24 hrs; format: organism-based, Canis lupus familiaris; conditions: in vivo
Canis familiaris [11] = assay: Acute toxicity in dog assessed as mortality at 30 to 2000 mg/kg, po administered as single dose capsule measured over 24 hrs; format: organism-based, Canis lupus familiaris; conditions: in vivo
Rattus norvegicus [12] = assay: Chronic toxicity in male rat assessed as hunched posture at 20 to 200 mg/kg/day, po administered for 28 days; format: organism-based; conditions: in vivo, 672 h
Rattus norvegicus [13] = assay: Chronic toxicity in female rat assessed as hunched posture at 6 to 100 mg/kg/day, po administered for 28 days; format: organism-based; conditions: in vivo, 672 h
Rattus norvegicus [14] = assay: Chronic toxicity in male rat assessed as soft feces at 20 to 200 mg/kg/day, po administered for 28 days; format: organism-based; conditions: in vivo, 672 h
Rattus norvegicus [15] = assay: Chronic toxicity in female rat assessed as sporadic occurrence of hair loss at 6 to 100 mg/kg/day, po administered for 28 days; format: organism-based; conditions: in vivo, 672 h
Rattus norvegicus [16] = assay: Chronic toxicity in female rat assessed as weight gain at 6 to 100 mg/kg/day, po administered for 28 days measured during compound dosing; format: organism-based; conditions: in vivo, 672 h
Rattus norvegicus [17] = assay: Chronic toxicity in male rat assessed as decrease in food consumption at 200 mg/kg/day, po administered for 28 days; format: organism-based; conditions: in vivo, 672 h
Rattus norvegicus [18] = assay: Chronic toxicity in female rat assessed as decrease in food consumption at 60 to 100 mg/kg/day, po administered for 28 days; format: organism-based; conditions: in vivo, 672 h
Rattus norvegicus [19] = assay: Chronic toxicity in male rat assessed as decrease in food consumption at 200 mg/kg/day, po administered for 28 days measured after cessation of dosing; format: organism-based; conditions: in vivo, 672 h
Rattus norvegicus [20] = assay: Chronic toxicity in male rat assessed as ophthalmologic changes at 200 mg/kg/day, po administered for 28 days; format: organism-based; conditions: in vivo, 672 h
Rattus norvegicus [21] = assay: Chronic toxicity in female rat assessed as hematological changes at 60 to 100 mg/kg/day, po administered for 28 days; format: organism-based; conditions: in vivo, 672 h
Rattus norvegicus [22] = assay: Chronic toxicity in male rat assessed as decrease in glucose levels at 200 mg/kg/day, po administered for 28 days; format: organism-based; conditions: in vivo, 672 h
Rattus norvegicus [23] = assay: Chronic toxicity in male rat assessed as decrease in triglyceride levels at 200 mg/kg/day, po administered for 28 days; format: organism-based; conditions: in vivo, 672 h
Rattus norvegicus [24] = assay: Chronic toxicity in male rat assessed as sporadic alterations in organ weight at 200 mg/kg/day, po administered for 28 days; format: organism-based; conditions: in vivo, 672 h
Rattus norvegicus [25] = assay: Chronic toxicity in female rat assessed as sporadic alterations in organ weight at 60 to 100 mg/kg/day, po administered for 28 days; format: organism-based; conditions: in vivo, 672 h
Rattus norvegicus [26] = assay: Chronic toxicity in male rat assessed as effect on organs at 200 mg/kg/day, po administered for 28 days; format: organism-based; conditions: in vivo, 672 h
Rattus norvegicus [27] = assay: Chronic toxicity in female rat assessed as effect on organs at 60 to 100 mg/kg/day, po administered for 28 days; format: organism-based; conditions: in vivo, 672 h
[28] = Chronic toxicity in po dosed female rat assessed as no observable adverse effect level administered daily for 28 days; format: organism-based; conditions: in vivo
Rattus norvegicus [29] = assay: Chronic toxicity in po dosed male rat assessed as severely toxic dose administered daily for 28 days; format: organism-based; conditions: in vivo, 672 h
Canis familiaris [30] = assay: Chronic toxicity in male dog assessed as increase in soft feces/diarrhea at 100 to 300 mg/kg/day, po administered for 28 days; format: organism-based, Canis lupus familiaris; conditions: in vivo, 672 h
Canis familiaris [31] = assay: Chronic toxicity in male dog assessed as discolored feces at 30 to 300 mg/kg/day, po administered for 28 days; format: organism-based, Canis lupus familiaris; conditions: in vivo, 672 h
Canis familiaris [32] = assay: Chronic toxicity in male dog assessed as mucoid feces at 30 to 300 mg/kg/day, po administered for 28 days; format: organism-based, Canis lupus familiaris; conditions: in vivo, 672 h
Canis familiaris [33] = assay: Chronic toxicity in dog assessed as mortality up to 300 mg/kg/day, po administered for 28 days; format: organism-based, Canis lupus familiaris; conditions: in vivo, 672 h
Canis familiaris [34] = assay: Chronic toxicity in female dog assessed as increase in emesis at 300 mg/kg/day, po administered for 28 days; format: organism-based, Canis lupus familiaris; conditions: in vivo, 672 h
Canis familiaris [35] = assay: Chronic toxicity in female dog assessed as soft feces/diarrhea at 100 to 300 mg/kg/day, po administered for 28 days; format: organism-based, Canis lupus familiaris; conditions: in vivo, 672 h
Canis familiaris [36] = assay: Chronic toxicity in dog assessed as effect on food consumption up to 300 mg/kg/day, po administered for 28 days measured during compound dosing; format: organism-based, Canis lupus familiaris; conditions: in vivo, 672 h
Canis familiaris [37] = assay: Chronic toxicity in dog assessed as ophthalmic lesions up to 300 mg/kg/day, po administered for 28 days; format: organism-based, Canis lupus familiaris; conditions: in vivo, 672 h
Canis familiaris [38] = assay: Chronic toxicity in dog assessed as electrocardiogram changes up to 300 mg/kg/day, po administered for 28 days; format: organism-based, Canis lupus familiaris; conditions: in vivo, 672 h
Canis familiaris [39] = assay: Chronic toxicity in dog assessed as hematological changes up to 300 mg/kg/day, po administered for 28 days measured during compound dosing; format: organism-based, Canis lupus familiaris; conditions: in vivo, 672 h
Canis familiaris [40] = assay: Chronic toxicity in dog assessed as urinalysis parameters up to 300 mg/kg/day, po administered for 28 days measured during compound dosing; format: organism-based, Canis lupus familiaris; conditions: in vivo, 672 h
Canis familiaris [41] = assay: Chronic toxicity in dog assessed as effect on serum troponin 1 levels up to 300 mg/kg/day, po administered for 28 days measured during compound dosing; format: organism-based, Canis lupus familiaris; conditions: in vivo, 672 h
Canis familiaris [42] = assay: Chronic toxicity in dog assessed as histopathological alterations in cardiac tissues up to 300 mg/kg/day, po administered for 28 days; format: organism-based, Canis lupus familiaris; conditions: in vivo, 672 h

## Cl.S=C(NCc1ccc2c(c1)OCO2)N1CCN(c2ncnc3c2oc2ccccc23)CC1 [AMUVATINIB HYDROCHLORIDE]
[1]
  solubility: 4000 µg/mL
OVCAR-3 [2]
  Activity: 113%
Mus musculus
  Activity: Toxic
OVCAR-3 [3]
  Activity: 10.22 mm3/day
A549 [4]
  inhibition at 0.71 µM: 26%
A549 [5]
  inhibition at 3.82 µM: 42%
[6]
  Cmax: 371 ng/mL
[7]
  Tmax: 5 min
[8]
  Tmax: 0.5 to 12 h
Rattus norvegicus [9]
  Activity: Non-Toxic
Canis familiaris [10]
  Activity: Non-Toxic
Canis familiaris [11]
  Activity: Non-Toxic
Rattus norvegicus [12]
  Activity: Toxic
Rattus norvegicus [13]
  Activity: Toxic
Rattus norvegicus [14]
  Activity: Toxic
Rattus norvegicus [15]
  Activity: Toxic
Rattus norvegicus [16]
  Activity: Toxic
Rattus norvegicus [17]
  Activity: Toxic
Rattus norvegicus [18]
  Activity: Toxic
Rattus norvegicus [19]
  Activity: Non-Toxic
Rattus norvegicus [20]
  Activity: Non-Toxic
Rattus norvegicus [21]
  Activity: Non-Toxic
Rattus norvegicus [22]
  Activity: Toxic
Rattus norvegicus [23]
  Activity: Toxic
Rattus norvegicus [24]
  Activity: Toxic
Rattus norvegicus [25]
  Activity: Toxic
Rattus norvegicus [26]
  Activity: Non-Toxic
Rattus norvegicus [27]
  Activity: Non-Toxic
[28]
  NOAEL at 672 h: 20 mg/kg/day
Rattus norvegicus [29]
  Activity: 200 mg/kg/day
Canis familiaris [30]
  Activity: Toxic
Canis familiaris [31]
  Activity: Toxic
Canis familiaris [32]
  Activity: Toxic
Canis familiaris [33]
  Activity: Non-Toxic
Canis familiaris [34]
  Activity: Toxic
Canis familiaris [35]
  Activity: Toxic
Canis familiaris [36]
  Activity: Non-Toxic
Canis familiaris [37]
  Activity: Non-Toxic
Canis familiaris [38]
  Activity: Non-Toxic
Canis familiaris [39]
  Activity: Non-Toxic
Canis familiaris [40]
  Activity: Non-Toxic
Canis familiaris [41]
  Activity: Non-Toxic
Canis familiaris [42]
  Activity: Non-Toxic
